The values that follow are results of earlier work, collected in patent publication US9981058B2, “Balloon surface coating” (CARDIONOVUM Sp.z.o.o., priority 2011, dated 2018).

Where two headings read alike, the source gives them in different places.

As for `CC(=O)O[C@H]1C(=O)[C@@]2(C)[C@H]([C@H](OC(=O)c3ccccc3)[C@]3(O)C[C@H](OC(=O)[C@H](O)[C@@H](NC(=O)c4ccccc4)c4ccccc4)C(C)=C1C3(C)C)[C@]1(OC(C)=O)CO[C@@H]1C[C@@H]2O` (relative stereo) [Paclitaxel, [2aR-[2a,4,4a,6,9(R*,S*),11, 12,12a,12b]]-(benzoylamino)-hydroxybenzene propionic acid 6,12b-bis-(acetyloxy)-12-(benzoyloxy)-2a-3,4,4a,5,6,9, 10, 11, 12, 12a,12b-dodecahydro-4, 11-dihydroxy-4a,8,13,13-tetramethyl-5-oxo-7,11-methano-1H-cyclodeca[3,4]benz[1,2-b]oxet-9-yl ester)], the Solubility result (in dimethyl sulfoxide (DMSO), methanol and anhydrous ethanol) is given as “highly soluble”; the Solubility entry (in water) was “comparatively poorly soluble”.
